In patent US11661403B2, “Oxadiazole compounds” (Vivace Therapeutics, Inc., priority 2018, dated 2023):

The compounds below were run on 8XTBD luciferase reporter (YAP) in HEK293T cells (assay: YAP Reporter Assay). Details: Homo sapiens, HEK-293T; HEK293T cells stably transfected with 8XTBD luciferase reporter and pRLTK; 24-hr incubation; top concentration 3 μM; read-out: Firefly Luciferase IC50.
Assay type: cell-based

For CCc1nnc(-c2ccccc2Nc2ccc(C(F)(F)F)cc2)o1 [Compound 90, 2-(5-ethyl-1,3,4-oxadiazol-2-yl)-N-(4-(trifluoromethyl)phenyl)aniline], which IC50 is on record?
The IC50 was 100 to 1000 nM.

FC(F)(F)c1ccc(Nc2ccccc2-c2nnc(OC/C=C/Br)o2)cc1 [Compound 82, (E)-2-(5-((3-bromoallyl)oxy)-1,3,4-oxadiazol-2-yl)-N-(4-(trifluoromethyl)phenyl)aniline] was tested. Which IC50 did it give?
The IC50 was 100 to 1000 nM.

For CC(C)(CO)c1nnc(-c2ccccc2Nc2ccc(C(F)(F)F)cc2)o1 [Compound 45, 2-methyl-2-(5-(2-((4-(trifluoromethyl)phenyl)amino)phenyl)-1,3,4-oxadiazol-2-yl)propan-1-ol], which IC50 is on record?
The IC50 was less than 100 nM.

How did the IC50 turn out when CON(C)C(=O)C(C)(C)c1nnc(-c2ccccc2Nc2ccc(C(F)(F)F)cc2)o1 [Compound 87, N-methoxy-N,2-dimethyl-2-(5-(2-((4-(trifluoromethyl)phenyl)amino)phenyl)-1,3,4-oxadiazol-2-yl)propanamide] was run?
The IC50 was less than 100 nM.

With CC(c1nnc(-c2ccccc2Nc2ccc(C(F)(F)F)cc2)o1)N(C)C#N (stereo not drawn) [Compound 161, N-methyl-N-(1-(5-(2-((4-(trifluoromethyl)phenyl)amino)phenyl)-1,3,4-oxadiazol-2-yl)ethyl)cyanamide] as the compound, how does the IC50 read?
The IC50 was less than 100 nM.

With CN(C#N)CC(C)(C)c1nnc(-c2ccccc2Nc2ccc(C(F)(F)F)cc2)o1 [Compound 146, N-methyl-N-(2-methyl-2-(5-(2-((4-(trifluoromethyl)phenyl)amino)phenyl)-1,3,4-oxadiazol-2-yl)propyl)cyanamide] as the compound, how does the IC50 read?
Its IC50 is less than 100 nM.
